# Results published in ChEMBL document CHEMBL5356963, “Discovery of flavone-derivatives as the new skeleton of transient receptor potential vanilloid 3 channel antagonists” (Bioorg Med Chem Lett, 2024).
# The source made the active and inactive calls. The calls are words filed in the database; no cut-off is given here.
# What was measured:
# Format in all cases: cell-based
# [1] = biological target: T1, Transient receptor potential cation channel subfamily V member 3 (Homo sapiens) (UniProt Q8NET8); test: Antagonist activity at human TRPV3 channel expressed in HEK293T cells assessed as inhibition of 2-APB induced channel current at 50 uM by whole cell patch clamp recordings relative to control
# T1 sequence (whole entry): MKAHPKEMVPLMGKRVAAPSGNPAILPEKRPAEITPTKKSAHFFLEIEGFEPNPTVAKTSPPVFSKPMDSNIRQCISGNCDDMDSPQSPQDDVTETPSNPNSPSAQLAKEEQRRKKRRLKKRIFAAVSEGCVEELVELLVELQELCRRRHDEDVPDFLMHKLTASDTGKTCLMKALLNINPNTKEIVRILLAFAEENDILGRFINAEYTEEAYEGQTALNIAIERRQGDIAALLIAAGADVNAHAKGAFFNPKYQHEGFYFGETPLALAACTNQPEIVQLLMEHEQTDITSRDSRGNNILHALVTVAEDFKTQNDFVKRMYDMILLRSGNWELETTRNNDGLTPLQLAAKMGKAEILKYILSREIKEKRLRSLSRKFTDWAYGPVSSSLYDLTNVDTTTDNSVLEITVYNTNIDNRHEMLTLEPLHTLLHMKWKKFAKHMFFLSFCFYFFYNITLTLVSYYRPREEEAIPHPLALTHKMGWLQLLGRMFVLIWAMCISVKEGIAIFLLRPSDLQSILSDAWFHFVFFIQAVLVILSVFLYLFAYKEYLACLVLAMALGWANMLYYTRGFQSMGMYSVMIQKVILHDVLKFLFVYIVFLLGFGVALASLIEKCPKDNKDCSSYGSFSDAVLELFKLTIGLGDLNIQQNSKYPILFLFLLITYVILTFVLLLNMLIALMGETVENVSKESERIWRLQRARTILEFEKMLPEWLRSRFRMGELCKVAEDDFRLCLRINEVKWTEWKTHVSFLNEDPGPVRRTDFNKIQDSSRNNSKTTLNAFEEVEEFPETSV
# [2] = biological target: T2, Transient receptor potential cation channel subfamily V member 3 (Homo sapiens, UniProt Q8NET8); test: Antagonist activity at human TRPV3 channel expressed in HEK293T cells assessed as inhibition of 2-APB induced channel current by whole cell patch clamp recordings
# T2 sequence (Q8NET8 whole entry): T1 sequence (whole entry)
# [3] = biological target: Transient receptor potential cation channel subfamily V member 4 (Homo sapiens) (UniProt Q9HBA0); test: Antagonist activity at TRPV4 (unknown origin) expressed in HEK293T cells assessed as inhibition of agonist induced channel current by whole-cell patch clamp recordings
# [4] = biological target: Transient receptor potential cation channel subfamily V member 1 (Homo sapiens) (UniProt Q8NER1); test: Antagonist activity at TRPV1 (unknown origin) expressed in HEK293T cells assessed as inhibition of agonist induced channel current by whole-cell patch clamp recordings
# [5] = biological target: Transient receptor potential cation channel subfamily M member 8 (Homo sapiens) (UniProt Q7Z2W7); test: Antagonist activity at TRPM8 (unknown origin) expressed in HEK293T cells assessed as inhibition of agonist induced channel current by whole-cell patch clamp recordings
# [6] = biological target: Transient receptor potential cation channel subfamily A member 1 (Homo sapiens) (UniProt O75762); test: Antagonist activity at TRPA1 (unknown origin) expressed in HEK293T cells assessed as inhibition of agonist induced channel current by whole-cell patch clamp recordings
# Transient receptor potential cation channel subfamily A member 1 (Homo sapiens), sequence (O75762 whole entry): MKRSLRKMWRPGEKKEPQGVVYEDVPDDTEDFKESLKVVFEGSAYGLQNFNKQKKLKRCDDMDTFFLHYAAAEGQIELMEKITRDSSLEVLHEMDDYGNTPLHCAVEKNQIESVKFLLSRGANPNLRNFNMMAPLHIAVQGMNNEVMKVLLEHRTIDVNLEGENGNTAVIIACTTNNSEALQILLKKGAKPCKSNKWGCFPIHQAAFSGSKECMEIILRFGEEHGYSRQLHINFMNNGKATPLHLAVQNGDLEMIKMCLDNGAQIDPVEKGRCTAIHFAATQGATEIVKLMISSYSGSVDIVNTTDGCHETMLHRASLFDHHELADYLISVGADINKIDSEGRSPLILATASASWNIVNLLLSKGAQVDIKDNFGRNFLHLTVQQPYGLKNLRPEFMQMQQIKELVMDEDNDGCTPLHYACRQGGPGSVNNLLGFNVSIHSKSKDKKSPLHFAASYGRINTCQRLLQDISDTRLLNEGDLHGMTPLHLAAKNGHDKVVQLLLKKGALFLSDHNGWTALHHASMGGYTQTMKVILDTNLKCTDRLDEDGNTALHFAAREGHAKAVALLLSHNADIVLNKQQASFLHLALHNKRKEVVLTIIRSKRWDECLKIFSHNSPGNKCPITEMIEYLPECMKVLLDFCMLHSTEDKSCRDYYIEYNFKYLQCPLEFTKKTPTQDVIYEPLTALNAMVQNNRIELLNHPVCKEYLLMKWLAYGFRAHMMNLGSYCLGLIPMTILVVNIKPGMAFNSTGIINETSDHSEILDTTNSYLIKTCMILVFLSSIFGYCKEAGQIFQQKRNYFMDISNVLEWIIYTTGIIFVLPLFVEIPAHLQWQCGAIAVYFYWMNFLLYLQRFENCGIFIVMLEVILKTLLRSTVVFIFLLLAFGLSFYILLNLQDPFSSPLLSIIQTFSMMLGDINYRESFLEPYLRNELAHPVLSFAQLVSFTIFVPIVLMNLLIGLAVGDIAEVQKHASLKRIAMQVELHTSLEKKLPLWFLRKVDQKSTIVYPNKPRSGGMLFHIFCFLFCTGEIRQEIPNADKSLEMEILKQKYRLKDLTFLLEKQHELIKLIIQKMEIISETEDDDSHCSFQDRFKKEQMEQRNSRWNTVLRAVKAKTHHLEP
# Transient receptor potential cation channel subfamily V member 1 (Homo sapiens), sequence (Q8NER1 whole entry): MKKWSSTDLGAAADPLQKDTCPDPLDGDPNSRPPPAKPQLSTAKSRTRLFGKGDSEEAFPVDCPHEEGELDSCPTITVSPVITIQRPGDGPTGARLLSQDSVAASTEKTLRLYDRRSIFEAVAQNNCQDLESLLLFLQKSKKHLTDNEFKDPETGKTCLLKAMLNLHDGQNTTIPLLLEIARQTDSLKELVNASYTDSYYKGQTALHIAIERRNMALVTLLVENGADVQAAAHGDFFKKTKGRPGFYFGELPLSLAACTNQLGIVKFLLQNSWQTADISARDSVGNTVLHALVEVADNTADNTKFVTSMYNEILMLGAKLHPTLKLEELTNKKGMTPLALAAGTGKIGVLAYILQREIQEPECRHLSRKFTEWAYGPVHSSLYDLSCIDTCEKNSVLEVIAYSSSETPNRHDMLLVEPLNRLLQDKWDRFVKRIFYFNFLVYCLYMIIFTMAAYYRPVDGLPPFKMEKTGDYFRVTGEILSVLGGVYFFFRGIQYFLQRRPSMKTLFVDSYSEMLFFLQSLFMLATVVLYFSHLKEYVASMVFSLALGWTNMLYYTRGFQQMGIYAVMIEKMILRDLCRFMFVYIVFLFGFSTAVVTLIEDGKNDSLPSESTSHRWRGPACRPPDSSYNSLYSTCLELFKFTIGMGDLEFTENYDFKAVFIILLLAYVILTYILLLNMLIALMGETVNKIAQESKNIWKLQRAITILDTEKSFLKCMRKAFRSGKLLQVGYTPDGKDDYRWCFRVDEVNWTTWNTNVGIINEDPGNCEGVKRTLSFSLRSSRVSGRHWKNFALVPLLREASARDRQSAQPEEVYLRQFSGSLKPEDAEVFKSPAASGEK
# Transient receptor potential cation channel subfamily V member 4 (Homo sapiens), sequence (Q9HBA0 whole entry): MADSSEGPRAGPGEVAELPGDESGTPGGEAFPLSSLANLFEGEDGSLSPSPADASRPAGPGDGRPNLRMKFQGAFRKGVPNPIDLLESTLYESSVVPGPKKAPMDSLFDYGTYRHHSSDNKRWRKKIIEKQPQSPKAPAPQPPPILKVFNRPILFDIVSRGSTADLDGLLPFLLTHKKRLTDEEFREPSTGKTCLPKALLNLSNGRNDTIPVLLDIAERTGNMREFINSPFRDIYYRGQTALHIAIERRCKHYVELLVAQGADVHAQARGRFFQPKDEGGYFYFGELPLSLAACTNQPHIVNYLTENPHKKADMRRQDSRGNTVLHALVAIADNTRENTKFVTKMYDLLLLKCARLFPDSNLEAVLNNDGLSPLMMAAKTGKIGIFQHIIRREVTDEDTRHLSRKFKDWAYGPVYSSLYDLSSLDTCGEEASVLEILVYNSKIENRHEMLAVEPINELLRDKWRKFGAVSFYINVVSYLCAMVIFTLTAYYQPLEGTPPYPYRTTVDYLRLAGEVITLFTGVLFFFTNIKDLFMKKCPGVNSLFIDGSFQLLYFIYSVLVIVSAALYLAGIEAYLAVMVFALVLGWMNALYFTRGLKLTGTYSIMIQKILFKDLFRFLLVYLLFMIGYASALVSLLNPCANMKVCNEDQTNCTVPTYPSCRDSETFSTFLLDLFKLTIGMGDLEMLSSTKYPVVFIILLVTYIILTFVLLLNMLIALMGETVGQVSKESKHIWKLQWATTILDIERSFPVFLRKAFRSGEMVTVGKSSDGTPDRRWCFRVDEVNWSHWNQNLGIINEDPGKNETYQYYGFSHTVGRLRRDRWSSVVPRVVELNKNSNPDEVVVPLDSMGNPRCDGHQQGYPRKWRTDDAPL
# Transient receptor potential cation channel subfamily M member 8 (Homo sapiens), sequence (Q7Z2W7 whole entry, looked up): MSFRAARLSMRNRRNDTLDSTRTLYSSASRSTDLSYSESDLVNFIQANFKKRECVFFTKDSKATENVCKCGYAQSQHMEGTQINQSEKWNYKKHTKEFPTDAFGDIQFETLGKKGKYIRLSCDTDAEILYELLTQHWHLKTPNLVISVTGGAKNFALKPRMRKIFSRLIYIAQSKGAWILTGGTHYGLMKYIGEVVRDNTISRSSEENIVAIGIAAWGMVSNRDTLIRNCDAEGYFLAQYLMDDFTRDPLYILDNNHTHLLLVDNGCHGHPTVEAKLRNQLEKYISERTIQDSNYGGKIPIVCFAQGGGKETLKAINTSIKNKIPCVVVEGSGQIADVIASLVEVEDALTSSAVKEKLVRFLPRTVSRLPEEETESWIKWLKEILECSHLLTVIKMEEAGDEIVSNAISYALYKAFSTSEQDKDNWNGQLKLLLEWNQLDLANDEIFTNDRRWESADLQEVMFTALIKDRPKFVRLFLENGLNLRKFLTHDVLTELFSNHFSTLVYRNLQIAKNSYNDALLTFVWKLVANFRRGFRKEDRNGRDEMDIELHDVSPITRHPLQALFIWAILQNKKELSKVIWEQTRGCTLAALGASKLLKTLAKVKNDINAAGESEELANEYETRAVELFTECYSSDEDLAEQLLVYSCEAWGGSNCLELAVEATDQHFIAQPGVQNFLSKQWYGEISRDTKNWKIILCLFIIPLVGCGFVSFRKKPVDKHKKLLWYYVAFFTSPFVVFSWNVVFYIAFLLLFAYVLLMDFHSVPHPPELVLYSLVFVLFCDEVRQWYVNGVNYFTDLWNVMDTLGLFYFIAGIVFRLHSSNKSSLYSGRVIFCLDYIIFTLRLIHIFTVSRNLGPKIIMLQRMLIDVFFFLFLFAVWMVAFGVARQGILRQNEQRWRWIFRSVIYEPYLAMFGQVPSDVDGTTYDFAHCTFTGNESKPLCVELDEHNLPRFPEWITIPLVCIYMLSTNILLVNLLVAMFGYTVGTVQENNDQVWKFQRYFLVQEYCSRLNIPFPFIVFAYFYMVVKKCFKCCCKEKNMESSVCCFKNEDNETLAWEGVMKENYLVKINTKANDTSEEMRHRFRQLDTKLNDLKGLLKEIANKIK
inhibition [1] [%],Structure (SMILES),other results
5.55,COCOc1cc(OCOC)c2c(c1)OC(c1ccc(F)cc1)CC2=O (stereo not drawn),–
13,O=c1cc(-c2ccc(O)cc2F)oc2cc(O)cc(O)c12,–
4.96,COc1ccc(C2CC(=O)c3c(O)cccc3O2)cc1 (stereo not drawn),–
–,C[C@@H]1O[C@@H](O[C@@H]2[C@@H](O)[C@H](OCCc3ccc(O)c(O)c3)O[C@H](CO[C@@H]3OC[C@](O)(CO)[C@H]3O)[C@H]2OC(=O)/C=C/c2ccc(O)c(O)c2)[C@H](O)[C@H](O)[C@H]1O,inhibition ([1]; filed as antagonist): 58.8%; IC50 [2]: 10.8 µM
–,COc1ccc(-c2cc(=O)c3c(O)cc(O)cc3o2)cc1 [ACACETIN],Activity [3]: inactive; inhibition ([1]; filed as antagonist): 61.8%; Activity [4]: inactive; Activity [5]: inactive; Activity [6]: inactive; IC50 [2]: 0.62 µM
21.2,O=c1cc(-c2ccc(F)cc2)oc2cc(O)cc(O)c12,–
3.81,O=c1cc(-c2ccc(OC(F)(F)F)cc2)oc2cc(O)cc(O)c12,–
4.68,COc1ccc(-c2cc(=O)c3c(O)cccc3o2)cc1,–
10.3,Cc1ccc(-c2cc(=O)c3c(O)cc(O)cc3o2)cc1,–
1.94,O=c1cc(-c2ccc(Br)cc2)oc2cc(O)ccc12,–
31.4,O=c1cc(-c2cccc(O)c2)oc2c(O)c(O)ccc12,–
–,O=c1cc(-c2ccc(O)cc2Br)oc2cc(O)cc(O)c12,inhibition ([1]; filed as antagonist): 51.7%
